Legend:
study subjects = assay: Treatment of study subjects with peroral daily doses according to intermittent administration schemes; format: in vivo, human; conditions: same doses and administration schemes; 50-150 mg perorally daily as a single dose
Method: (§1) Study subjects are treated with compound (76) with the following doses according to the following administration schemes: • in a 3 month trial, 75 mg or 150 mg compound (76) administered perorally daily as a single dose on day 2-7 of the menstrual cycle • in a 3 months trial, 75 mg, 100 mg or 150 mg compound (76) administered perorally daily as a single dose on day 2-7 of the menstrual cycle followed by a 3 months treatment-free period • in a 6 months trial, 75 mg or 150 mg compound (76) administered perorally daily as a single dose • 50 mg or 150 mg per compound (76) administered daily as a single dose over 42 days (6 weeks)
as §1, with “(68)” for “(76)”
as §1, with “36” for “(76)”
as §1, with “37” for “(76)”
as §1, with “52” for “(76)”
as §1, with “144” for “(76)”, “weeks) […]” for “weeks)”

[1] = in vivo; cited from earlier work
LHRH receptor = LHRH receptor (Homo sapiens, UniProt P30968); conditions: Cho N et al., J. Med. Chem. 1998; cited from earlier work
Sequence of LHRH receptor (P30968 whole entry): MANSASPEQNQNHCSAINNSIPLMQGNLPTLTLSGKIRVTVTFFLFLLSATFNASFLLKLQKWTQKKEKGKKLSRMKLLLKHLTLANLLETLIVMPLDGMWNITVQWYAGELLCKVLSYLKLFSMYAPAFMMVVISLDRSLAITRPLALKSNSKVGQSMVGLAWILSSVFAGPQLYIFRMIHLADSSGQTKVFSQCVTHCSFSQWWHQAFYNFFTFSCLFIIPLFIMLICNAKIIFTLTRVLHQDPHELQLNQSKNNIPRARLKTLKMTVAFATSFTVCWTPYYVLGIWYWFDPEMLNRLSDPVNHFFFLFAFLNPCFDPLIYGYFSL

SMILES | prevention of chemical (hormonal) castration (study subjects) | bioavailability [1] | receptor affinity (LHRH receptor)
CCC(C)[C@H](NC(=O)Cc1ccccc1F)C(=O)N[C@]1(C(=O)N[C@H](C(=O)NCN2CCOCC2)C(C)CC)CCc2[nH]c3c(C(F)(F)F)cccc3c2C1 (stereo partly drawn) [Compound 36, (R)-3-{(S)-2-[2-(2-Fluoro-phenyl)-acetylamino]-3-methyl-pentanoylamino}-8-trifluoromethyl-2,3,4,9-tetrahydro-1H-carbazole-3-carboxylic acid {(S)-2-methyl-1-[(morpholin-4-ylmethyl)-carbamoyl]-butyl}-amide] | successfully prevented | – | –
CCC(C)[C@H](NC(=O)Cc1ccccc1F)C(=O)N[C@]1(C(=O)N[C@H](C(=S)NCN2CCOCC2)C(C)CC)CCc2[nH]c3c(C(F)(F)F)cccc3c2C1 (stereo partly drawn) [Compound 37, (R)-3-{(S)-2-[2-(2-Fluoro-phenyl)-acetylamino]-3-methyl-pentanoylamino}-8-trifluoromethyl-2,3,4,9-tetrahydro-1H-carbazole-3-carboxylic acid {(S)-2-methyl-1-[(morpholin-4-ylmethyl)-thiocarbamoyl]-butyl}-amide] | successfully prevented | – | –
CCC(C)[C@H](NC(=O)Cc1ccccc1F)C(=O)N[C@]1(C(=O)N[C@H](C(=S)NCC2CCOCC2)C(C)CC)CCc2[nH]c3c(C(F)(F)F)cccc3c2C1 (stereo partly drawn) [Compound 52, (R)-3-{(S)-2-[2-(2-Fluoro-phenyl)-acetylamino]-3-methyl-pentanoylamino}-8-trifluoromethyl-2,3,4,9-tetrahydro-1H-carbazole-3-carboxylic acid {(S)-2-methyl-1-[(tetrahydro-pyran-4-ylmethyl)-thiocarbamoyl]-butyl}-amide] | successfully prevented | – | –
CCC(C)[C@H](NC(=O)Cc1ccccc1F)C(=O)N[C@]1(C(=O)N[C@H](C(=O)NNc2ccccc2)C(C)CC)CCc2[nH]c3c(C(F)(F)F)cccc3c2C1 (stereo partly drawn) [Compound 144, (R)-3-{(S)-2-[2-(2-Fluoro-phenyl)-acetylamino]-3-methyl-pentanoylamino}-8-trifluoromethyl-2,3,4,9-tetrahydro-1H-carbazole-3-carboxylic acid [(S)-2-methyl-1-(N′-phenyl-hydrazinocarbonyl)-butyl]-amide] | successfully prevented | – | –
CC(C)OC(=O)c1cn(Cc2c(F)cccc2F)c2sc(-c3ccc(NC(=O)C(C)C)cc3)c(CN(C)Cc3ccccc3)c2c1=O [T-98475] | – | low | high
CCC(C)[C@H](NC(=O)Cc1ccccc1F)C(=O)N[C@]1(C(=O)N[C@H](C(N)=S)C(C)CC)CCc2[nH]c3c(Cl)cc(F)cc3c2C1 (some centres unmarked) [compound (68)] | successfully prevented | – | –
CCC(C)[C@H](NC(=O)Cc1ccccc1F)C(=O)N[C@]1(C(=O)N[C@H](C(N)=S)C(C)CC)CCc2[nH]c3c(C(F)(F)F)cccc3c2C1 (stereo partly drawn) [compound (76), (R)-3-{(S)-2-[2-(2-fluorophenyl)acetylamino]-3-methylpentanoylamino}-8-trifluoro-methyl-2,3,4,9-tetrahydro-1H-carbazole-3-carboxylic acid ((S)-2-methyl-1-thio-carbamoylbutyl)amide] | successfully prevented | – | –

From US8273716B2, “Use of LHRH antagonists for intermittent treatments” (Spectrum Pharmaceuticals, Inc., priority 2008, dated 2012)
